Series [1] deals with T1, Integrin alpha-4/beta-1 (Homo sapiens, UniProt P05556+P13612). As to the kind of experiment: Inhibitory activity against alpha-4 beta-1 receptor (VLA-4) in human RPMI-8866 cells using [125I]-VCAM-Ig ligand. Type of series: cell-based.
The nature of another series: in vivo. Particulars: Sprague-Dawley, rat, plasma, iv, 1 mg/kg.
Series [2] in a line: Bioavailability in rat (dose 1 mg/kg i.v. and 2 mg/kg p.o.). To be noted: in vivo, po, F.
In series [3] the target is T1, Integrin alpha-4/beta-1. As to the kind of experiment: Inhibition of [125I]VCAM-Ig binding to alpha4-beta1 (VLA-4) of human RPMI-8866 cells. Type of series: cell-based.
The species entered for the next series is Rattus norvegicus. To be noted: in vivo, iv, 1 mg/kg.

Each structure is given as a SMILES string.

T1 sequence (P05556 whole entry): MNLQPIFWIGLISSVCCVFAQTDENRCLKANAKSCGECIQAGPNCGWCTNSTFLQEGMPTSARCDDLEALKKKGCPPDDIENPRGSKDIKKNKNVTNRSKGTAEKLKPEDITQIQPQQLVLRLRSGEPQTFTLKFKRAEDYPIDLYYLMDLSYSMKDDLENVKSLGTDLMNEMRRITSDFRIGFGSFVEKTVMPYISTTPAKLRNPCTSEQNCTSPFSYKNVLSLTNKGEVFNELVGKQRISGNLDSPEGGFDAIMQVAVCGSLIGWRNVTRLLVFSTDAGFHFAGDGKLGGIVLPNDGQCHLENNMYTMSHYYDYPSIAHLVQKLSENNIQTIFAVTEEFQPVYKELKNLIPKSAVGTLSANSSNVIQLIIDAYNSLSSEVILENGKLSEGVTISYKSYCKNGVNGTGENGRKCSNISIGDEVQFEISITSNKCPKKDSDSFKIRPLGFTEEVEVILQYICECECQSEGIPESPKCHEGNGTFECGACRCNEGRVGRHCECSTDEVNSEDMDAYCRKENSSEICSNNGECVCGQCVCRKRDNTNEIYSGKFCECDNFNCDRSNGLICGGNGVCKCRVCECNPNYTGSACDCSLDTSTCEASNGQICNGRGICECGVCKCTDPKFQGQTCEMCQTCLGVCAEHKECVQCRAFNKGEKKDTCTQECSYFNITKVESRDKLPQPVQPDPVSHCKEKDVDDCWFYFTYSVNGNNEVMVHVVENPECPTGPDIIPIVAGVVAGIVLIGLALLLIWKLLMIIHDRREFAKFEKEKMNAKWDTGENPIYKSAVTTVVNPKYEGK
T1 sequence (P13612 whole entry): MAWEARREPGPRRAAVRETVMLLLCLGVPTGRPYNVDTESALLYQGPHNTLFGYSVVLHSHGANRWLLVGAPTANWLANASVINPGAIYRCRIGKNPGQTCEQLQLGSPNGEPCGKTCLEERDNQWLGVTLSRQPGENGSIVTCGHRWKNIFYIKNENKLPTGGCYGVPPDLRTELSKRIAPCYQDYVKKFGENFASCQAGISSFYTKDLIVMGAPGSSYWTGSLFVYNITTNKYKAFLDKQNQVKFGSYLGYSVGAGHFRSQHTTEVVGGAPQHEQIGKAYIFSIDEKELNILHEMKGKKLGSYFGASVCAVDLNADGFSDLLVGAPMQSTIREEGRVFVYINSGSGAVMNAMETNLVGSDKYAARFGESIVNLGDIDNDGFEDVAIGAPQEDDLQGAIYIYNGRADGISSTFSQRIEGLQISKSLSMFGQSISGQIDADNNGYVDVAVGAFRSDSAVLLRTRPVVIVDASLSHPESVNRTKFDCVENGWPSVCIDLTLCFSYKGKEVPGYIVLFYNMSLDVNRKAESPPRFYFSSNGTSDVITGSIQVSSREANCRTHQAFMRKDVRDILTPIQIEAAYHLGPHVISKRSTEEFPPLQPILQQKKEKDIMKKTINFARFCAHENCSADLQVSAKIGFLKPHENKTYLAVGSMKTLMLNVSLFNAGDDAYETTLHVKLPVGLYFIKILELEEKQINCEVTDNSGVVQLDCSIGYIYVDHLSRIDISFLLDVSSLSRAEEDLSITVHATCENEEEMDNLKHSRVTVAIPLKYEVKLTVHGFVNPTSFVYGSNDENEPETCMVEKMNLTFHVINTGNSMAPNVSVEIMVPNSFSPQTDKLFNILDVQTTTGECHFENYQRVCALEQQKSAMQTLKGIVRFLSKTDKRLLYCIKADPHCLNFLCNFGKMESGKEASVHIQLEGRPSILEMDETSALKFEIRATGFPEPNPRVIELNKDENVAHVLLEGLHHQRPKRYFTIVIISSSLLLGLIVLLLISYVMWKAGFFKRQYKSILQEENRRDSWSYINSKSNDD

For the molecule `O=C(O)C[C@@H](NC(=O)[C@@H]1CCCN1S(=O)(=O)c1cc(Cl)cc(Cl)c1)c1ccc(O)cc1`, it took 0.74 nM to reach half-maximal inhibition against Integrin alpha-4/beta-1 [1] (IC50). Besides, the clearance in the series “in vivo” came out at 22 mL/min/kg.
For the molecule `O=C(O)C[C@@H](NC(=O)[C@@H]1CCN1S(=O)(=O)c1cc(Cl)cc(Cl)c1)c1ccc(Cl)c(F)c1`, on Integrin alpha-4/beta-1 [1], half-maximal inhibition (IC50) required 11 nM.
The same measure, in the same setting: with `O=C(O)C[C@@H](NC(=O)[C@@H]1CCN1S(=O)(=O)c1cc(Cl)cc(Cl)c1)c1ccc(OCF)cc1` the figure was 0.72 nM; with `O=C(O)CCNC(=O)[C@@H]1CCCN1S(=O)(=O)c1cc(Cl)cc(Cl)c1`, 1510 nM.
`O=C(O)C[C@@H](NC(=O)[C@@H]1CCN1S(=O)(=O)c1cc(Cl)cc(Cl)c1)c1ccc(OC2CC2)cc1`: the IC50 at Integrin alpha-4/beta-1 [1] turned out to be 0.31 nM. In the series “in vivo”, this molecule yielded a clearance of 70 mL/min/kg.
As to `O=C(O)C[C@@H](NC(=O)[C@@H]1CCN1S(=O)(=O)c1cc(Cl)cc(Cl)c1)c1ccc(OC(F)F)cc1`, it took 1.3 nM to reach half-maximal inhibition against Integrin alpha-4/beta-1 [1] (IC50).
As to `CS(=O)(=O)c1ccc([C@@H](CC(=O)O)NC(=O)[C@@H]2CCCN2S(=O)(=O)c2cc(Cl)cc(Cl)c2)cc1`, half-maximal inhibition against Integrin alpha-4/beta-1 [1] (IC50) was put at 0.55 nM. This molecule yielded a clearance in “in vivo” of 92 mL/min/kg.
For the molecule `COc1ccc([C@](C)(CC(=O)O)NC(=O)[C@@H]2CCN2S(=O)(=O)c2cc(Cl)cc(Cl)c2)cc1`, the bioavailability in series [2] worked out at 19%. Further, inhibition at Integrin alpha-4/beta-1 [1] was half-maximal at 26 nM (IC50). For the same molecule, in “in vivo”, the clearance was 46 mL/min/kg.
The molecule `O=C(O)C[C@@H](NC(=O)[C@@H]1CCN1S(=O)(=O)c1cc(Cl)cc(Cl)c1)c1ccc(Br)cc1` came in with an IC50 on Integrin alpha-4/beta-1 [1] of 2.1 nM.
Same read-out and setting: with `Cc1ccccc1NC(=O)Nc1ccc(CN[C@@H](CC(C)C)C(=O)N[C@@H](CC(=O)O)c2ccc3c(c2)OCO3)cc1` the figure was 3 nM; with `CC(C)[C@H](CC(=O)O)NC(=O)[C@@H]1CCCN1S(=O)(=O)c1cc(Cl)cc(Cl)c1`, 362 nM; with `O=C(O)C[C@H](Cc1ccccc1)NC(=O)[C@@H]1CCCN1S(=O)(=O)c1cc(Cl)cc(Cl)c1`, 22 nM.
Molecule `O=C(O)C[C@@H](NC(=O)[C@@H]1CCCN1S(=O)(=O)c1cc(Cl)cc(Cl)c1)c1ccc(OC2CC2)cc1` registered an IC50 against Integrin alpha-4/beta-1 [1] of 0.85 nM. In the series “in vivo”, this molecule had a clearance of 26 mL/min/kg.
The molecule `O=C(O)C[C@@H](NC(=O)[C@@H]1CCN1S(=O)(=O)c1cc(Cl)cc(Cl)c1)c1ccc(F)cc1` registered an IC50 at Integrin alpha-4/beta-1 [1] of 3.2 nM.
In the case of `O=C(O)[C@H](Cc1ccccc1)NC(=O)[C@@H]1CCCN1S(=O)(=O)c1cc(Cl)cc(Cl)c1`, half-maximal inhibition against Integrin alpha-4/beta-1 [1] (IC50) required 1.4 nM.
The molecule `CCOc1ccc([C@@H](CC(=O)O)NC(=O)[C@@H]2CCCN2S(=O)(=O)c2cc(Cl)cc(Cl)c2)cc1` yielded an IC50 at Integrin alpha-4/beta-1 [1] of 0.27 nM. Further, the clearance in the series “in vivo” stood at 40 mL/min/kg.
With `O=C(O)C[C@@H](NC(=O)[C@@H]1CCCN1S(=O)(=O)c1cc(Cl)cc(Cl)c1)c1ccc(OC(F)(F)F)cc1`, 2.6 nM corresponded to half-maximal inhibition against Integrin alpha-4/beta-1 [1] (IC50). The molecule also displayed a clearance in the series “in vivo” of 22 mL/min/kg.
With `O=C(O)C[C@@H](NC(=O)[C@@H]1CCN1S(=O)(=O)c1cc(Cl)cc(Cl)c1)c1ccc(Oc2ccccc2)cc1`, the IC50 on Integrin alpha-4/beta-1 [1] turned out to be 3.1 nM. In other words, the single-digit nanomolar range.
Take `COc1ccc([C@@H](CC(=O)O)NC(=O)[C@]2(C)CCN2S(=O)(=O)c2cc(Cl)cc(Cl)c2)cc1`: the IC50 against Integrin alpha-4/beta-1 [1] was 1.5 nM. Moreover, the clearance in the series “in vivo” stood at 7 mL/min/kg.
`O=C(O)C[C@H](NC(=O)[C@@H]1CCCN1S(=O)(=O)c1cc(Cl)cc(Cl)c1)c1ccccc1` showed a concentration for half-maximal inhibition (IC50) at Integrin alpha-4/beta-1 [1] of 544 nM.
On the same count and under the same terms, under `C/C=C/[C@@H](CC(=O)O)NC(=O)[C@@H]1CCCN1S(=O)(=O)c1cc(Cl)cc(Cl)c1` stands 13 nM.
On the same count and under the same terms, with `CC(C)(C)Oc1ccc([C@@H](CC(=O)O)NC(=O)[C@@H]2CCCN2S(=O)(=O)c2cc(Cl)cc(Cl)c2)cc1` the figure was 0.53 nM.
`O=C(O)C[C@@H](NC(=O)[C@@H]1CCN1S(=O)(=O)c1cc(Cl)cc(Cl)c1)c1ccccc1` registered a half-maximal inhibitory concentration (IC50) on Integrin alpha-4/beta-1 [3] of 2.4 nM. This molecule yielded a clearance in “in vivo” of 27 mL/min/kg.
Molecule `COc1ccc([C@@H](CC(=O)O)NC(=O)[C@@H]2CCN2S(=O)(=O)c2cc(Cl)cc(Cl)c2)cn1` had a half-maximal inhibitory concentration (IC50) against Integrin alpha-4/beta-1 [1] of 3 nM. In the series “in vivo”, this molecule yielded a clearance of 55 mL/min/kg.
In series [2], `O=C(O)C[C@@H](NC(=O)[C@@H]1CCN1S(=O)(=O)c1cc(Cl)cc(Cl)c1)c1ccc(OCC(F)(F)F)cc1` showed a bioavailability of 38%. Further, half-maximal inhibition against Integrin alpha-4/beta-1 [1] (IC50) was put at 1.4 nM. Besides, in the series “in vivo”, the clearance stood at 43 mL/min/kg.
`CC(C)[C@@H](CC(=O)O)NC(=O)[C@@H]1CCCN1S(=O)(=O)c1cc(Cl)cc(Cl)c1` came in with a half-maximal inhibitory concentration (IC50) against Integrin alpha-4/beta-1 [1] of 8.9 nM. In other words, the single-digit nanomolar range.
On Integrin alpha-4/beta-1 [1], `O=C(O)C[C@@H](NC(=O)[C@@H]1CCN1S(=O)(=O)c1cc(Cl)cc(Cl)c1)c1ccc(OC2CCCC2)cc1` had an IC50 of 0.5 nM. In the series “in vivo”, this molecule yielded a clearance of 165 mL/min/kg.
For `COc1ccc([C@@H](CC(=O)O)NC(=O)[C@@H]2CCN2S(=O)(=O)c2cc(Cl)cc(Cl)c2)cc1` (stereo in doubt; 6g), on Integrin alpha-4/beta-1 [1], 0.39 nM corresponded to half-maximal inhibition (IC50). Further, the clearance in the series filed under Rattus norvegicus is 39 mL/min/kg.
The corresponding values for `COc1ccc([C@@H](CC(=O)O)NC(=O)[C@@H]2CCN2S(=O)(=O)c2cc(Cl)cc(Cl)c2)cc1` (stereo in doubt; 7g) are 0.49 nM and 17 mL/min/kg.

By IC50 is commonly meant the midpoint of a concentration-inhibition curve. A low value points to inhibition by little substance. The term clearance denotes a measure of how efficiently the substance is removed, as volume per time. A high value points to a high capacity for elimination. As a reminder, the bioavailability is dose-corrected exposure relative to a reference, in per cent.
